Data as given in publication PMC12670317, “Targeted NAT10 Degradation by PROTAC NP1192 Suppresses Hypoxia-Adaptive Glycolysis and Reinvigorates CD8^+ Effector T‑Cell Function for Synergistic Cancer Immunotherapy” (ACS Central Science, 2025).

What was measured:
[1] = system: CD8+ T cells cocultured with U14 cells; settings: Figure 7B, coculture with U14 cells, 36 h
Experimental: Fresh CD8^+ T cells were extracted according to the instructions of the kit. The day before the CD8^+ T cells were extracted, the antimouse CD3 antibody was diluted to 5 μg/mL with sterile PBS, and the diluted antibody was added to a 24-well plate and incubated overnight at 4 °C. (Before the antibody was added to the plate, the plate was rinsed with sterile PBS 2–3 times to avoid dry wells). The plate incubated the previous day was removed from the 4 °C refrigerator on the second day, and the coating solution was discarded, followed by washing with sterile PBS 3 times. Amplification culture medium consisting of DMEM + 10% serum + 5 μg/mL antimouse CD28 + IL-2 was prepared. The cell lines used for culture were maintained in the logarithmic growth phase (70–80% confluence). Cell counting was performed, and CCa cells were seeded in a 12-well plate (10^5 cells/well) and cultured until adherence. T cells were mixed with tumor cells at different effector-to-target ratios (1:10) and then incubated with different drugs for 24 h. Flow cytometry experiments were then performed to detect the CD8^+ T-cell subtypes.

[2] = system: CD8+ TILs, M2 macrophages, MDSCs and Treg cells in U14 xenograft tumors; settings: Figure 7A
Experimental: U14 cells (1 × 10^7 cells per mouse, approximately 100–150 μL of cell suspension) were implanted subcutaneously into the lateral lower dorsal surface of each mouse. The tumors were allowed to grow for 7 days, and the mice were then administered one of five treatments (group 1: U14 cells + DMSO; group 2: U14 cells + Remodelin; group 3: U14 cells + anti-PD-L1 antibody; group 4: U14 cells + NP1192; group 5: U14 cells + anti-PD-L1 antibody + NP1192). Each group of mice was assigned according to the principles of randomization and the blinding method. Tumors were measured every 2 days, and tumor volume was calculated via the following equation: volume = (width)^2 × length/2. Remodelin and NP1192 were injected into the peritumoral area every 2 days at a dose of 25 mg/kg, and the in vivo antimouse PD-L1 antibody (low endotoxin) was injected every 3 days at a dose of 2.5 mg/kg.
After the mice were euthanized, the tumor and peritumoral tissues were analyzed with an immunoflow kit (BioLegend, USA). The antibodies used for immunoflow cytometry included antihuman/mouse antibodies specific for CD11b-BV711, F4/80-AF647, CD206-PE, CD86-BV605, CD4-CD4-FITC IL-17-17-CY7/CY7, CD25-PE, FOXP3-AF647, CD4-BV605, CD45-PE/CY7, CD11b-BV711 and LY-6G/LY-6C-BV421 (BioLegend catalog no. 321239, RRID:AB_2860843). All data analyses were performed via GraphPad Prism 9, and the data are presented as the mean ± SEMs.

[3] = system: cervical squamous cell carcinoma and endocervical adenocarcinoma (CESC) patient-derived organoids; assay: ATP-based viability assay in patient-derived organoids, CESC; format: cell-based; settings: Homo sapiens, CESC PDOs, read-out: IC50, organoid viability
Experimental: (§1) Organoid culture was performed according to previously established protocols. Briefly, we procured patient-derived tissue samples provided and technically manipulated by Accurate International Biotechnology Co., Ltd. Subsequently, these samples were subjected to mechanical and enzymatic dissociation to disaggregate the tissue into single cells or small clusters, while preserving cellular integrity. Following this initial step, the isolated cells or tissue fragments were embedded within a 3D ECM scaffold, such as Matrigel or collagen. The ECM scaffold served as a supportive substrate, promoting cellular self-organization and mimicking native tissue architecture. Additionally, a precisely formulated cocktail of growth factors, cytokines, and signaling molecules tailored to the specific tissue of interest was meticulously formulated and added to the culture medium to facilitate organoid growth and maintenance.

[4] = system: HFF-1 cells; assay: Cytotoxicity in nonmalignant HFF-1 cells; format: cell-based, human; settings: HFF-1 cells with low NAT10 expression
[5] = system: normal organoids; assay: Normal organoids exposed to NP1192; format: cell-based, human; settings: following NP1192 exposure
Experimental: as §1

[6] = target: T1, NAT10 (Mus musculus, UniProt Q8K224); assay: NAT10 degradation in U14 cells, Western blot; format: cell-based; settings: murine U14 cervical cells, same treatment (20 μM), 36 h
T1 construct: nearly 70% reduction in the NAT10 protein content in murine U14 cervical cells after 36 h; endogenous in cells; host or cells: U14 (murine cervical carcinoma cell line, RRID:CVCL_9U56)
T1 sequence (Q8K224 1-1024): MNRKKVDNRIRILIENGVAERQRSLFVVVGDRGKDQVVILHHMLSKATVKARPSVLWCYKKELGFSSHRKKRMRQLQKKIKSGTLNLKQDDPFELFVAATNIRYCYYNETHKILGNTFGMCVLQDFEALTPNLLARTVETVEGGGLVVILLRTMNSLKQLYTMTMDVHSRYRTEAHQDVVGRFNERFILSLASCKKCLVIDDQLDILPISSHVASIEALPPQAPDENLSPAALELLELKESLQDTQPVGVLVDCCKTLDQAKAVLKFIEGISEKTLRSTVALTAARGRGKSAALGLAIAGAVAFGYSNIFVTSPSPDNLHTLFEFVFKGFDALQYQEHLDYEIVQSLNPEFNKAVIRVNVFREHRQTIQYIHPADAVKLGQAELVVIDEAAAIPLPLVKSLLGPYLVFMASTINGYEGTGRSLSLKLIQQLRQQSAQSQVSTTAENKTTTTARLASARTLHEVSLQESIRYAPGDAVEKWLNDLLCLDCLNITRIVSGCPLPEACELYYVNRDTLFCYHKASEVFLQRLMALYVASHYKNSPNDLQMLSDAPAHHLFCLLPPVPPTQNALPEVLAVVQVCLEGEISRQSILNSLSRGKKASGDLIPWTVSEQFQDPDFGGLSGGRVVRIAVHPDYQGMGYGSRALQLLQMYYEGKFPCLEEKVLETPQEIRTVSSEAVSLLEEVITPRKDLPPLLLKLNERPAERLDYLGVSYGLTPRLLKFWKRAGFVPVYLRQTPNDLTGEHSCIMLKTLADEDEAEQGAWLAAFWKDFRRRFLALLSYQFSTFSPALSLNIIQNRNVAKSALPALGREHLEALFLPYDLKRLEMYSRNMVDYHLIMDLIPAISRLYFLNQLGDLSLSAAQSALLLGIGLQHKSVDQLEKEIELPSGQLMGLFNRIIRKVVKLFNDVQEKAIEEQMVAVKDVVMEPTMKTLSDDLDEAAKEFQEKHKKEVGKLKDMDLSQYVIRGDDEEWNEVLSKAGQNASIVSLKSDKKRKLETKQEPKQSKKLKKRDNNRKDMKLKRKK
Experimental: The human CCa cell line SiHa and the normal epithelial foreskin fibroblast line HFF-1 were purchased from the Cell Bank of the Chinese Academy of Sciences. Additionally, murine cervical carcinoma cell line U14 (RRID:CVCL_9U56) was purchased from Boster Company. HFF-1 and U14 cells were cultured in Dulbecco’s modified Eagle’s medium (DMEM) (Gibco, USA) supplemented with 10% heat-inactivated fetal bovine serum (FBS; Gibco, USA), while SiHa cells were incubated in RPMI 1640 medium (Gibco, USA) in a humid atmosphere with 5% CO2 at 37 °C. For hypoxia exposure, the cells were incubated in a sealed culture tank containing 5% CO2 and 0.1% O2 (MGC, Japan) for 36 h.
RIPA lysis buffer (Beyotime, China) mixed with 1% protease inhibitor (Sigma, US) was added to the cells, and a sample of total protein was obtained and then loaded onto an 8% or 12% polyacrylamide gel. The gel was placed in a buffer solution, and an electric current was applied. The separated proteins were subsequently transferred from the gel onto a PVDF membrane. Next, the membrane was blocked with 5% milk for 1 h to prevent nonspecific antibody binding. […] The target proteins were detected via chemiluminescence with a ChemiDoc MP Imaging System (Bio-Rad, US).

[7] = system: HIF-1α; assay: HIF-1α protein level in SiHa cells, Western blot; format: cell-based, human; settings: 36 h
Experimental: (§2) RIPA lysis buffer (Beyotime, China) mixed with 1% protease inhibitor (Sigma, US) was added to the cells, and a sample of total protein was obtained and then loaded onto an 8% or 12% polyacrylamide gel. The gel was placed in a buffer solution, and an electric current was applied. The separated proteins were subsequently transferred from the gel onto a PVDF membrane. Next, the membrane was blocked with 5% milk for 1 h to prevent nonspecific antibody binding. The membranes were subsequently incubated with anti-NAT10 (1:1000, Abcam, USA), anti-PD-L1 (1:1000, Proteintech, China), anti-HIF-1α (1:1000, Abmart, China), and anti-β-tubulin (1:1000, Proteintech, China) primary antibodies for 12 h. Afterward, the membrane was sequentially washed with 1× TBST and incubated for 1 h with an antimouse secondary antibody (1:6000, Elabscience, China) or antirabbit secondary antibody (1:6000, Elabscience, China). The target proteins were detected via chemiluminescence with a ChemiDoc MP Imaging System (Bio-Rad, US).

[8] = system: glioblastoma (GBM) patient-derived organoids; assay: ATP-based viability assay in patient-derived organoids, GBM; format: cell-based; settings: Homo sapiens, GBM PDOs, read-out: IC50, organoid viability
Experimental: as §1

[9] = system: PD-L1; assay: PD-L1 protein level in SiHa cells, Western blot; format: cell-based, human; settings: 36 h
Experimental: as §2

## N#Cc1ccc(-c2csc(N(CCCCCCC(=O)N3CCN(c4cccc5c4C(=O)N(C4CCC(=O)NC4=O)C5=O)CC3)N=C3CCCC3)n2)cc1 (stereo not drawn) [NP1192]
[1]
  Teff cells, IFN-γ gate (lower row): 7.75%
[2]; CD4+CD25+FOXP3+
  Treg gate: 0.00%
[2]; CD11b+F4/80+CD206+
  M2 (M2 macrophages gate): 8.10%
[2]; CD11b+LY-6G+
  MDSC gate: 4.96%
[2]; tumors after treatment
  CD8+ (CD8+ TILs gate): 4.30%
[3]
  IC50: 3.05 µM
[4]
  cytotoxicity in nonmalignant cells: minimal cytotoxicity
[5]
  architecture and cellular integrity of normal organoids: remained unaltered
[6]
  reduction in NAT10 protein content: ~70%
[7]
  HIF-1α protein levels: decreased HIF-1α protein levels
[8]
  IC50: 13.8 µM
[9]
  PD-L1 protein level: pronounced downregulation of PD-L1
